Here are results for twelve compounds from patent publication US11845760B2, “PRMT5 inhibitors” (AMGEN INC., priority 2020, dated 2023).

For assay [1], the system named is HCT116 WT cells. Briefly: HCT116 WT cell line proliferation (CellTiter-Glo cell viability, 6 days). The class given is cell-based. To be noted: HCT116 WT (parent) cells, 6 days of treatment, CellTiter-Glo cell viability, read-out: HCT-116 WT IC50. The method in brief: (§1)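 Isogenic HCT116 pair (parent and MTAP double-allele knockout) in RPMI 1640 + 10% FBS, exposed 6 days to compound: 8–9-point 1:3 dilutions from 1 or 10 μM top, or 22-point 1:2 dilutions from 10 or 50 μM top. CellTiter-Glo luminescence; IC50 from sigmoidal fit (Hill −1) or 4-parameter logistic.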

The test system of assay [2] is HCT116 MTAP null cells. Put plainly: HCT116 MTAP null cell line proliferation (CellTiter-Glo cell viability, 6 days). The class given is cell-based. To be noted: HCT116 MTAP null cells, 6 days of treatment, CellTiter-Glo cell viability, read-out: HCT-116 MTAP null IC50. The method in brief: as §1

Read-outs that look alike come from different tables or passages of the source.

As to `CCOc1ccc([C@@H]2COC[C@H](C)N2C(=O)c2cc3c4c(c(N)nc3cc2F)COC4)nn1` (racemic) [Example 327, (4-amino-7-fluoro-1,3-dihydrofuro[3,4-c]quinolin-8-yl)((3R,5S)-3-(6-ethoxy-3-pyridazinyl)-5-methyl-4-morpholinyl)methanone and (4-amino-7-fluoro-1,3-dihydrofuro[3,4-c]quinolin-8-yl)((3S,5R)-3-(6-ethoxy-3-pyridazinyl)-5-methyl-4-morpholinyl)methanone], the IC50 is 2400 nM in assay [1] (Homo sapiens, HCT-116, 144 h) and 43 nM in assay [2] (HCT116-MTAP null, 144 h).

Turning to `C[C@H]1COC[C@@H](c2ccc(OC(F)(F)F)cc2F)N1C(=O)c1cc2c3c(c(N)nc2cn1)COC3` (racemic) [Example 328, (4-amino-1,3-dihydrofuro[3,4-c][1,7]naphthyridin-8-yl)((3R,5S)-3-(2-fluoro-4-(trifluoromethoxy)phenyl)-5-methyl-4-morpholinyl)methanone and (4-amino-1,3-dihydrofuro[3,4-c][1,7]naphthyridin-8-yl)((3S,5R)-3-(2-fluoro-4-(trifluoromethoxy)phenyl)-5-methyl-4-morpholinyl)methanone], the IC50 turned out to be 1000 nM in assay [1] (Homo sapiens, HCT-116, 144 h) and 49 nM in assay [2] (HCT116-MTAP null, 144 h).

As to `C[C@H]1OCc2c1c(N)nc1ccc(C(=O)N3[C@@H](C)COC[C@H]3c3ccc(OC(F)(F)F)cc3F)cc21` (racemic) [Example 329, ((3R)-4-amino-3-methyl-1,3-dihydrofuro[3,4-c]quinolin-8-yl)((3R,5S)-3-(2-fluoro-4-(trifluoromethoxy)phenyl)-5-methyl-4-morpholinyl)methanone and ((3R)-4-amino-3-methyl-1,3-dihydrofuro[3,4-c]quinolin-8-yl)((3S,5R)-3-(2-fluoro-4-(trifluoromethoxy)phenyl)-5-methyl-4-morpholinyl)methanone], the IC50 in assay [1] (Homo sapiens, HCT-116, 144 h) turned out to be 1520 nM; in assay [2] (HCT116-MTAP null, 144 h), 50 nM.

Regarding `C[C@@H]1COC[C@H](c2ccc(C(F)(F)F)cc2F)N1C(=O)c1ccc2nc(N)c3c(c2c1)COC3` (racemic) [Example 333, (4-amino-1,3-dihydrofuro[3,4-c]quinolin-8-yl)((3R,5S)-3-(2-fluoro-4-(trifluoromethyl)phenyl)-5-methyl-4-morpholinyl)methanone and (4-amino-1,3-dihydrofuro[3,4-c]quinolin-8-yl)((3S,5R)-3-(2-fluoro-4-(trifluoromethyl)phenyl)-5-methyl-4-morpholinyl)methanone], the figures for the IC50 in assay [1] and in assay [2] were 1440 nM and 58 nM, respectively.

Consider `C[C@H]1COC[C@@H](c2ccc(C(F)(F)F)cc2F)N1C(=O)c1cc2c3c(c(N)nc2cn1)COC3` (racemic) [Example 334, (4-amino-1,3-dihydrofuro[3,4-c][1,7]naphthyridin-8-yl)((3R,5S)-3-(2-fluoro-4-(trifluoromethyl)phenyl)-5-methyl-4-morpholinyl)methanone and (4-amino-1,3-dihydrofuro[3,4-c][1,7]naphthyridin-8-yl)((3S,5R)-3-(2-fluoro-4-(trifluoromethyl)phenyl)-5-methyl-4-morpholinyl)methanone], for which the IC50 was 706 nM in assay [1] (Homo sapiens, HCT-116, 144 h) and 27 nM in assay [2] (HCT116-MTAP null, 144 h).

Turning to `C[C@H]1OCc2c1c(N)nc1cnc(C(=O)N3CCOC[C@@H]3c3ccc(C(F)(F)F)cc3)cc21` (racemic) [Example 338, ((3R)-4-amino-3-methyl-1,3-dihydrofuro[3,4-c][1,7]naphthyridin-8-yl)((3S)-3-(4-(trifluoromethyl)phenyl)-4-morpholinyl)methanone and ((3S)-((4-amino-3-methyl-1,3-dihydrofuro[3,4-c][1,7]naphthyridin-8-yl)((3S)-3-(4-(trifluoromethyl)phenyl)-4-morpholinyl)methanone], the IC50 in assay [1] (Homo sapiens, HCT-116, 144 h) was found to be 5020 nM; in assay [2] (HCT116-MTAP null, 144 h) it was 100 nM.

In the case of `C[C@H]1COC[C@@H](c2ccc(C(F)(F)F)cn2)N1C(=O)c1cc2c3c(c(N)nc2cn1)COC3` (racemic) [Example 339, (4-amino-1,3-dihydrofuro[3,4-c][1,7]naphthyridin-8-yl)((3R,5S)-3-methyl-5-(5-(trifluoromethyl)-2-pyridinyl)-4-morpholinyl)methanone and (4-amino-1,3-dihydrofuro[3,4-c][1,7]naphthyridin-8-yl)((3S,5R)-3-methyl-5-(5-(trifluoromethyl)-2-pyridinyl)-4-morpholinyl)methanone], the IC50 in assay [1] (Homo sapiens, HCT-116, 144 h) was 497 nM; in assay [2] (HCT116-MTAP null, 144 h) it was 20 nM.

As to `C[C@H]1COC[C@@H](c2ccc(C(F)(F)F)nc2)N1C(=O)c1cc2c3c(c(N)nc2cn1)COC3` (racemic) [Example 340, (4-amino-1,3-dihydrofuro[3,4-c][1,7]naphthyridin-8-yl)((3R,5S)-3-methyl-5-(6-(trifluoromethyl)-3-pyridinyl)-4-morpholinyl)methanone and (4-amino-1,3-dihydrofuro[3,4-c][1,7]naphthyridin-8-yl)((3S,5R)-3-methyl-5-(6-(trifluoromethyl)-3-pyridinyl)-4-morpholinyl)methanone], the IC50 in assay [1] (Homo sapiens, HCT-116, 144 h) amounted to 6440 nM; in assay [2] (HCT116-MTAP null, 144 h), 71 nM.

Take `Nc1nc2ccc(C(=O)N3CCOCC3c3ccc(F)c(OC(F)(F)F)c3)cc2c2c1COC2` (racemic) [Example 341, (4-amino-1,3-dihydrofuro[3,4-c]quinolin-8-yl)((3R)-3-(4-fluoro-3-(trifluoromethoxy)phenyl)-4-morpholinyl)methanone and (4-amino-1,3-dihydrofuro[3,4-c]quinolin-8-yl)((3S)-3-(4-fluoro-3-(trifluoromethoxy)phenyl)-4-morpholinyl)methanone]: the IC50 is 13200 nM in assay [1] (Homo sapiens, HCT-116, 144 h) and 871 nM in assay [2] (HCT116-MTAP null, 144 h).

As to `Nc1nc2cc(F)c(C(=O)N3CCOCC3c3ccc(F)c(C(F)(F)F)c3)cc2c2c1COC2` (racemic) [Example 342, (4-amino-7-fluoro-1,3-dihydrofuro[3,4-c]quinolin-8-yl)((3R)-3-(4-fluoro-3-(trifluoromethyl)phenyl)-4-morpholinyl)methanone and (4-amino-7-fluoro-1,3-dihydrofuro[3,4-c]quinolin-8-yl)((3S)-3-(4-fluoro-3-(trifluoromethyl)phenyl)-4-morpholinyl)methanone], the IC50 stood at 6170 nM in assay [1] and 117 nM in assay [2].

For the compound `C[C@H]1OCc2c1c(N)nc1ccc(C(=O)N3CCOC[C@H]3c3ccc(C(F)(F)F)cn3)cc21` (racemic) [Example 343, ((3R)-4-amino-3-methyl-1,3-dihydrofuro[3,4-c]quinolin-8-yl)((3R)-3-(5-(trifluoromethyl)-2-pyridinyl)-4-morpholinyl)methanone and ((3R)-4-amino-3-methyl-1,3-dihydrofuro[3,4-c]quinolin-8-yl)((3S)-3-(5-(trifluoromethyl)-2-pyridinyl)-4-morpholinyl)methanone], the IC50 in assay [1] (Homo sapiens, HCT-116, 144 h) turned out to be 16200 nM; in assay [2] (HCT116-MTAP null, 144 h), 308 nM.

Take `Nc1nc2cc(Cl)c(C(=O)N3CCOCC3c3ccc(C(F)(F)F)cn3)cc2c2c1COC2` (racemic) [Example 344, (4-amino-7-chloro-1,3-dihydrofuro[3,4-c]quinolin-8-yl)((3R)-3-(5-(trifluoromethyl)-2-pyridinyl)-4-morpholinyl)methanone and (4-amino-7-chloro-1,3-dihydrofuro[3,4-c]quinolin-8-yl)((3S)-3-(5-(trifluoromethyl)-2-pyridinyl)-4-morpholinyl)methanone]: the IC50 in assay [1] (Homo sapiens, HCT-116, 144 h) is 1410 nM; in assay [2] (HCT116-MTAP null, 144 h) it was 58 nM.
